The test system of this experiment is Escherichia coli. In words: Antibacterial activity against Escherichia coli HS294 after 18 hrs by microtitre plate method. The class given is functional.

Converted amounts (≈) assume the structure as drawn.

For orientation: MIC means the least concentration at which growth counts as inhibited. The low end stands for greater potency, the high end for weaker potency. For the compound `C[C@H]1CCCC[C@H]2C(=O)C=C[C@H](O)[C@@H]2CC(=O)O1`, 40 µg/mL (≈ 159 µM) was the least that counted as inhibitory (MIC).

These data come from ChEMBL document CHEMBL1147255, “Isolation and structure elucidation of Sch 642305, a novel bacterial DNA primase inhibitor produced by Penicillium verrucosum” (J Nat Prod, 2003).
